From patent US7205302B2, “Heterocyclic compound derivatives and medicines” (Nippon Shinyaku Co., Ltd., priority 2001, dated 2007) come the findings set out here.

Where two headings read alike, the source gives them in different places.

Data set [1] concerns ADP-induced platelet aggregation in monkey PRP. In words: Ex vivo platelet aggregation inhibition test in monkeys. On the set-up: species or system cynomolgus monkeys (Macaca fascicularis). The conditions noted are these: for inhibition at 0.3 mg/kg / inhibition at 1 mg/kg: Macaca fascicularis, Platelet, read-out: Inhibition percentage of platelet aggregation in monkeys; for inhibition at 0.3 mg/kg: oral 0.3 mg/kg; for inhibition at 1 mg/kg: oral 1 mg/kg. As for the experimental part: Ex Vivo Platelet Aggregation Inhibition Test in Monkeys
The compound of Example 84 was orally administered to two cynomolgus monkeys (Macaca fascicularis, male, aged 3 to 5) at a dose of 0.3 or 1 mg/kg. Before the administration or 2, 4 and 8 hours after the administration, blood (each 4.5 ml) was collected using an injection cylinder containing aqueous 3.8% citric acid solution in the amount of 1/10 of the volume of blood to be collected. Blood containing citric acid solution was centrifuged at 200×g for 10 minutes and the upper layer was collected as PRP. Furthermore, the residual blood was centrifuged at 1500×g for 10 minutes and the supernatant was collected as PPP. 190 μl of PRP was added to a cuvette and incubated at 37° C. for one minute, and then 10 μl of ADP solution (5 to 30 μM) was added to induce platelet aggregation. The percentage of platelet aggregation was measured by an aggregometer (PM8C, Mebanix, Tokyo) using PPP as the blank and inhibition percentage of platelet aggregation was determined by comparing the percentage of aggregation before administration of the compound with the percentage of aggregation after administration of the compound according to the following equation. Inhibition percentage of Platelet Aggregation (%)=100−(The percentage of Aggregation after administration of compound)/(The percentage of Aggregation before administration of compound)×100

The melting point is the temperature, or range, at which the solid turns liquid. For the compound `O=C(O)COCCCC1CCCN1c1cnc(-c2ccccc2)c(-c2ccccc2)n1` (racemic) [Example 55, (±)-2-{3-[1-(5,6-diphenylpyrazin-2-yl)pyrrolidin-2-yl]propyloxy}acetic acid], the melting point was in the range of 137 to 139 °C.
On the same count and under the same terms, the same measure for `O=C(O)COCCCCC1CCCN1c1cnc(-c2ccccc2)c(-c2ccccc2)n1` (racemic) [Example 57, (±)-2-{4-[1-(5,6-diphenylpyrazin-2-yl)pyrrolidin-2-yl]butyloxy}acetic acid]: 138 to 140 °C; for `O=C(O)COCCC1CCCN(c2cnc(-c3ccccc3)c(-c3ccccc3)n2)C1` (racemic) [Example 58, (±)-2-{2-[1-(5,6-diphenylpyrazin-2-yl)piperidin-3-yl]ethoxy}acetic acid]: 139 to 140 °C.
In the case of `O=C(O)COCCCCN(c1cnc(-c2ccccc2)c(-c2ccccc2)n1)C1CCCC1` [Example 43, 2-{4-[N-(5,6-diphenylpyrazin-2-yl)-N-cyclopentylamino]butyloxy}acetic acid], the melting point was 101 to 103 °C.
The same measure, in the same setting: the same measure for `O=C(O)COCCCCN(c1cnc(-c2ccccc2)c(-c2ccccc2)n1)C1CCCCC1` [Example 44, 2-{4-[N-(5,6-diphenylpyrazin-2-yl)-N-cyclohexylamino]butyloxy}acetic acid]: 130 to 131 °C.
Same read-out and setting: as for `Cc1ccc(-c2ncc(N(CCCCOCC(=O)O)C(C)C)nc2-c2ccc(C)cc2)cc1` [Example 45, 2-{4-[N-(5,6-di-p-tolylpyrazin-2-yl)-N-isopropylamino]butyloxy}acetic acid], the figure is 155 to 156 °C; as for `CC(C)N(CCCCOCC(=O)O)c1nc(-c2ccccc2)c(-c2ccccc2)nc1Cl` [Example 47, 2-{4-[N-(3-chloro-5,6-diphenylpyrazin-2-yl)-N-isopropylamino]butyloxy}acetic acid], 136 to 138 °C.
The compound `CC(C)N(CCCCOCC(=O)O)c1nnc(-c2ccccc2)c(-c2ccccc2)n1` [Example 49, 2-{4-[N-(5,6-diphenyl-1,2,4-triazin-3-yl)-N-isopropylamino]butyloxy}acetic acid] gave a melting point of 128 to 130 °C.
On the same count and under the same terms, the same measure for `Cc1ccc(-c2ncc(N(C)CCCCOCC(=O)O)nc2-c2ccc(C)cc2)cc1` [Example 50, 2-{4-[N-(5,6-di-p-tolylpyrazin-2-yl)-N-methylamino]butyloxy}acetic acid]: 161 to 162 °C.
Still for that read-out and setting: the same measure for `COc1ccc(-c2ncc(N(C)CCCCOCC(=O)O)nc2-c2ccc(OC)cc2)cc1` [Example 51, 2-[4-{N-[5,6-bis(4-methoxyphenyl)pyrazin-2-yl]-N-methylamino}butyloxy]acetic acid]: 128 to 130 °C; for `CN(CCCCOCC(=O)O)c1cnc(-c2ccc(F)cc2)c(-c2ccc(F)cc2)n1` [Example 52, 2-[4-{N-[5,6-bis(4-fluorophenyl)pyrazin-2-yl]-N-methylamino}butyloxy]acetic acid]: 116 to 118 °C; for `O=C(O)COCCC1CCN(c2cnc(-c3ccccc3)c(-c3ccccc3)n2)CC1` [Example 54, 2-{2-[1-(5,6-diphenylpyrazin-2-yl)piperidin-4-yl]ethoxy}acetic acid]: 173 to 174 °C.
On to `CN(CCCCOCC(=O)O)c1nnc(-c2ccccc2)c(-c2ccccc2)n1` [Example 56, 2-{4-[N-(5,6-diphenyl-1,2,4-triazin-3-yl)-N-methylamino]butyloxy}acetic acid], for which the melting point is 108 to 110 °C.
Still for that read-out and setting: as for `CN(C[C@H](O)c1cccc(OCC(=O)O)c1)c1cnc(-c2ccccc2)c(-c2ccccc2)n1` [Example 59, (R)-(+)-2-[3-{2-[N-(5,6-diphenylpyrazin-2-yl)-N-methylamino]-1-hydroxyethyl}phenoxy]acetic acid], the figure is 158 to 159 °C; as for `CN(CCc1cccc(OCC(=O)O)c1)c1cnc(-c2ccccc2)c(-c2ccccc2)n1` [Example 61, 2-[3-{2-[N-(5,6-diphenylpyrazin-2-yl)-N-methylamino]ethyl}phenoxy]acetic acid], 174 to 176 °C.
Consider `CN(c1cnc(-c2ccccc2)c(-c2ccccc2)n1)C1CCc2c(OCC(=O)O)cccc21` (stereo not shown) [Example 62, 4-(carboxymethoxy)-1-[N-(5,6-diphenylpyrazin-2-yl)-N-methylamino]indane], for which the melting point lay within 182 to 184 °C.
For the compound `CN(CCCCCCC(=O)O)c1cnc(-c2ccccc2)c(-c2ccccc2)n1` [Example 65, 7-[N-(5,6-diphenylpyrazin-2-yl)-N-methylamino]heptanoic acid], the melting point is 114 to 118 °C.
On the same count and under the same terms, as for `CN(CCCCCCCC(=O)O)c1cnc(-c2ccccc2)c(-c2ccccc2)n1` [Example 66, 8-[N-(5,6-diphenylpyrazin-2-yl)-N-methylamino]octanoic acid], the figure is 116 to 117 °C; as for `CN(CCCCCCCCC(=O)O)c1cnc(-c2ccccc2)c(-c2ccccc2)n1` [Example 67, 9-[N-(5,6-diphenylpyrazin-2-yl)-N-methylamino]nonanoic acid], 103 to 105 °C; as for `CN(CCCCCC(=O)O)c1cnc(-c2ccccc2)c(-c2ccccc2)n1` [Example 68, 6-[N-(5,6-diphenylpyrazin-2-yl)-N-methylamino]hexanoic acid], 159 to 160 °C.
Still for that read-out and setting: as for `CN(C/C=C\COCC(=O)O)c1cnc(-c2ccccc2)c(-c2ccccc2)n1` [Example 71, 2-{4-[N-(5,6-diphenylpyrazin-2-yl)-N-methylamino]-(Z)-2-buten-1-yloxy]acetic acid], the figure is 148 to 150 °C; as for `CN(C/C=C/COCC(=O)O)c1cnc(-c2ccccc2)c(-c2ccccc2)n1` [Example 72, 2-{4-[N-(5,6-diphenylpyrazin-2-yl)-N-methylamino]-(E)-2-buten-1-yloxy]acetic acid], 128 to 130 °C; as for `O=C(O)COCCCCSc1cnc(-c2ccccc2)c(-c2ccccc2)n1` [Example 76, 2-{4-[(5,6-diphenylpyrazin-2-yl)thio]butyloxy}acetic acid], 86 to 88 °C.
Compound `CN(CC1CCc2c(cccc2OCC(=O)O)C1)c1cnc(-c2ccccc2)c(-c2ccccc2)n1` (stereo not shown) [Example 77, 5-(carboxymethoxy)-2-{[N-(5,6-diphenylpyrazin-2-yl)-N-methylamino]methyl}-1,2,3,4-tetrahydronaphthalene] had a melting point of 212 to 213 °C.
Consider `CC(C)N(CCCC[S+]([O-])CC(=O)O)c1cnc(-c2ccccc2)c(-c2ccccc2)n1` (stereo not shown) [Example 79, 2-{4-[N-(5,6-diphenylpyrazin-2-yl)-N-isopropylamino]butylsulfinyl}acetic acid], for which the melting point is 117 to 120 °C (dec.).
On the same count and under the same terms, the same measure for `CC(C)N(CCCCS(=O)(=O)CC(=O)O)c1cnc(-c2ccccc2)c(-c2ccccc2)n1` [Example 80, 2-{4-[N-(5,6-diphenylpyrazin-2-yl)-N-isopropylamino]butylsulfonyl}acetic acid]: 183 to 185 °C.
Regarding `O=C(O)COCCCCS(=O)(=O)c1cnc(-c2ccccc2)c(-c2ccccc2)n1` [Example 82, 2-[4-(5,6-diphenylpyrazin-2-sulfonyl)butyloxy]acetic acid], the melting point is 123 to 125 °C.
As usually defined, the inhibition is the share of the control response that was lost under treatment. Turning to `CC(C)N(CCCCOCC(=O)NS(C)(=O)=O)c1cnc(-c2ccccc2)c(-c2ccccc2)n1` [Example 84, 2-{4-[N-(5,6-diphenylpyrazin-2-yl)-N-isopropylamino]butyloxy}-N-(methylsulfonyl)acetamide], the inhibition at 0.3 mg/kg in data set [1] (2 h after administration) came out at 28%; in data set [1] (4 h after administration), 34%; in data set [1] (8 h after administration) it was 19%. Moreover, the inhibition at 1 mg/kg in data set [1] (2 h after administration) was 63%; in data set [1] (4 h after administration), 40%; in data set [1] (8 h after administration), 52%. Also, the “ex vivo platelet aggregation inhibition (in words)” value in data set [1] (oral 0.3 or 1 mg/kg, 2 to 8 hours after administration) is recorded as “inhibits platelet aggregation persistently in a dose-dependent manner”.
